In ChEMBL document CHEMBL1255225, “Antiviral activity of various 1-(2'-deoxy-β-D-lyxofuranosyl), 1-(2'-fluoro-β-D-xylofuranosyl), 1-(3'-fluoro-β-D-arabinofuranosyl), and 2'-fluoro-2',3'-didehydro-2',3'-dideoxyribose pyrimidine nucleoside analogues against duck hepatitis B virus (DHBV) and human hepatitis B virus (HBV) replication” (J Med Chem, 2010):

Legend:
[1] = test system: Duck hepatitis B virus; assay: Antiviral activity against DHBV infected in duck hepatocytes assessed as inhibition of viral DNA replication relative to control; type: functional, Hepatocyte; set-up: concentration or dose not given beside the values
[2] = test system: Hepatitis B virus; assay: Antiviral activity against HBV assessed as inhibition of viral DNA replication relative to control; type: functional; set-up: concentration or dose not given beside the values
[3] = Cytotoxicity against HuH7 cells; type: cell-based, Huh-7; settings: human
[4] = test system: Duck hepatitis B virus; assay: Antiviral activity against DHBV infected in duck hepatocytes assessed as inhibition of viral DNA replication at 10 ug/ml; type: functional, Hepatocyte; set-up: scale not given: the % may be the effect or the level left
[5] = test system: Hepatitis B virus; assay: Antiviral activity against HBV assessed as inhibition of viral DNA replication at 10 ug/mL; type: functional; set-up: scale not given: the % may be the effect or the level left
[6] = test system: Duck hepatitis B virus; assay: Antiviral activity against DHBV infected in duck hepatocytes assessed as inhibition of viral DNA replication; type: functional, organism-based; settings: Hepatocyte
[7] = test system: Hepatitis B virus; assay: Antiviral activity against HBV assessed as inhibition of viral DNA replication at 5 ug/mL; type: functional; set-up: scale not given: the % may be the effect or the level left
[8] = test system: Hepatitis B virus; assay: Antiviral activity against HBV assessed as inhibition of viral DNA replication; type: functional, organism-based
[9] = test system: Hepatitis B virus; assay: Antiviral activity against drug resistant HBV infected in M204I cells assessed as inhibition of viral DNA replication; type: functional, organism-based
[10] = test system: Hepatitis B virus; assay: Antiviral activity against drug resistant HBV infected in M204I cells assessed as inhibition of viral DNA replication at 5 ug/mL; type: functional; set-up: scale not given: the % may be the effect or the level left
[11] = test system: Duck hepatitis B virus; assay: Antiviral activity against DHBV infected in duck hepatocytes assessed as inhibition of viral DNA replication at 1 ug/ml; type: functional, Hepatocyte; set-up: scale not given: the % may be the effect or the level left
[12] = test system: Hepatitis B virus; assay: Antiviral activity against HBV assessed as inhibition of viral DNA replication at 0.5 ug/mL; type: functional; set-up: scale not given: the % may be the effect or the level left
[13] = test system: Hepatitis B virus; assay: Antiviral activity against HBV assessed as inhibition of viral DNA replication at 1 ug/mL; type: functional; set-up: scale not given: the % may be the effect or the level left
[14] = test system: Duck hepatitis B virus; assay: Antiviral activity against DHBV infected in duck hepatocytes assessed as inhibition of viral DNA replication at 0.05 ug/ml; type: functional, Hepatocyte; set-up: scale not given: the % may be the effect or the level left
[15] = test system: Hepatitis B virus; assay: Antiviral activity against drug resistant HBV infected in M204I cells assessed as inhibition of viral DNA replication at 1 ug/mL; type: functional; set-up: scale not given: the % may be the effect or the level left
[16] = test system: Hepatitis B virus; assay: Antiviral activity against drug resistant HBV infected in M204I cells assessed as inhibition of viral DNA replication at 10 ug/mL; type: functional; set-up: scale not given: the % may be the effect or the level left
[17] = test system: Hepatitis B virus; assay: Antiviral activity against drug resistant HBV infected in M204I cells assessed as inhibition of viral DNA replication at 1 to 5 ug/mL; type: functional; set-up: scale not given: the % may be the effect or the level left
[18] = test system: Duck hepatitis B virus; assay: Antiviral activity against DHBV infected in duck hepatocytes assessed as inhibition of viral DNA replication at 0.01 to 0.05 ug/mL; type: functional, Hepatocyte; set-up: scale not given: the % may be the effect or the level left
[19] = test system: Hepatitis B virus; assay: Antiviral activity against HBV assessed as inhibition of viral DNA replication at 0.5 to 1 ug/mL; type: functional; set-up: scale not given: the % may be the effect or the level left

SMILES	Activity [1] [%]	Activity [2] [%]	CC50 [3] [µM]	Activity [4] [%]	Activity [5] [%]	EC50 [6] [µM]	EC50 [8] [µM]	EC50 [9] [µM]	other results
O=c1[nH]c(=O)n([C@H]2C[C@@H](O)[C@@H](CO)O2)cc1Br	0	0	> 651	–	–	–	–	–	–
O=c1ccn([C@H]2C[C@@H](O)[C@@H](CO)O2)c(=O)[nH]1	0	0	> 877	–	–	–	–	–	–
Cc1cn([C@H]2C[C@@H](O)[C@@H](CO)O2)c(=O)[nH]c1=S	0	0	> 775	–	–	–	–	–	–
CCc1cn([C@H]2C[C@@H](O)[C@@H](CO)O2)c(=O)[nH]c1=O	0	0	> 781	–	–	–	–	–	–
O=c1[nH]c(=O)n([C@H]2C[C@@H](O)[C@@H](CO)O2)cc1Cl	–	–	> 763	25	15	–	–	–	–
O=c1ccn([C@@H]2O[C@H](CO)[C@@H](F)[C@@H]2O)c(=O)[nH]1	–	–	> 813	25	15	–	–	–	–
Cc1cn([C@@H]2O[C@H](CO)[C@@H](F)[C@@H]2O)c(=O)[nH]c1=O	0	0	> 769	–	–	–	–	–	–
O=c1ccn([C@@H]2O[C@H](CO)[C@H](O)[C@H]2F)c(=O)[nH]1	–	–	> 813	50	40	40.6	–	–	–
Cc1cn([C@@H]2O[C@H](CO)[C@H](O)[C@H]2F)c(=O)[nH]c1=O	–	–	> 769	72	60	3.84	19.2	19.2	Activity [7]: 50%; Activity [10]: 50%; Activity [11]: 50%
Cc1cn([C@@H]2O[C@H](CO)C=C2F)c(=O)[nH]c1=O	–	–	> 413	94	85	0.2	2	4.1	Activity [12]: 50%; Activity [13]: 58%; Activity [14]: 50%; Activity [15]: 50%; Activity [11]: 67%
CCc1cn([C@@H]2O[C@H](CO)C=C2F)c(=O)[nH]c1=O	–	–	> 781	50	50	39.1	39.1	39.1	Activity [16]: 50%
Cc1cn([C@H]2C[C@@H](O)[C@@H](CO)O2)c(=O)[nH]c1=O	–	–	> 826	65	50	4.13	41.3	–	Activity [16]: 45%; Activity [11]: 50%
Nc1ncnc2c1ncn2[C@H]1CC(O)[C@@H](CO)O1 (single isomer, unassigned) [DEOXYADENOSINE]	–	–	–	40	36	–	–	–	–
O=c1[nH]c(=O)n([C@H]2CC(O)[C@@H](CO)O2)cc1F (single isomer, unassigned) [FLOXURIDINE]	0	0	> 813	–	–	–	–	–	–
O=c1[nH]c(=O)n([C@H]2CC(O)[C@@H](CO)O2)cc1C(F)(F)F (single isomer, unassigned) [TRIFLURIDINE]	–	–	> 675	70	55	3.37	33.7	33.7	Activity [16]: 50%; Activity [11]: 50%
Nc1nc(NC2CC2)c2ncn([C@H]3C=C[C@@H](CO)C3)c2n1 [ABACAVIR]	–	–	–	–	–	–	–	< 2.6	Activity [17]: 80%
O=c1[nH]c(=O)n([C@H]2C[C@H](O)[C@@H](CO)O2)cc1I [IDOXURIDINE]	0	0	> 282	–	–	–	–	–	–
Nc1ccn([C@@H]2CS[C@H](CO)O2)c(=O)n1 [LAMIVUDINE]	–	–	> 873	–	–	< 0.044	0.22	> 44	Activity [18]: 95%; Activity [19]: 85%; Activity [16]: 40%
